According to US11918577B2, “Dipeptidyl peptidase-4 inhibitors for topical eye treatment of retinal neurodegenerative diseases” (FUNDACIÓ HOSPITAL UNIVERSITARI VALL D'HEBRON - INSTITUT DE …, priority 2016, dated 2024):

Assays:
db/db mice = conditions: orally administered, diabetic mice (db/db); cited from earlier work
db/db mouse [1] = assay: Glial activation (GFAP staining score) in retina of db/db mice, eye drops; assay type: in vivo; conditions: for GFAP score of the treated mice / reactive gliosis: eye drops for two weeks; for GFAP score of the treated mice: all cases, scale 1-5; for reactive gliosis: vs vehicle
Excerpt: (§1) It has been reported that db/db mice reproduce the features of the neurodegenerative process that occurs in the human diabetic eye. Therefore, it is an appropriate model for testing neuroprotective drugs (according to Bogdanov et al., “The db/db mouse: a useful model for the study of diabetic retinal neurodegeneration”, PLoS One—2014, vol. no. 9(5):e97302). A total of 20 male db/db (BKS.Cg-+Lepr db/+Lepr db/OlaHsd) mice aged 10 weeks were purchased from Harlan Laboratories, Inc. In addition, 10 non-diabetic (db/+) mice matched by age were used as control group.
(§2) This study was approved by the Animal Care and Use Committee of VHIR (Vali d′Hebron Research Institute). All the experiments were performed in accordance with the tenets of the European Community (86/609/CEE) and ARVO (Association for Research in Vision and Ophthalmology).
Glial activation was evaluated by Laser Scanning Confocal microscopy using specific antibodies against GFAP (Glial fibrillar acidic protein). Sections were fixed in acid methanol (−20° C.) for 2 min, followed by three washes with PBS, 5 min each. Sections were permeabilized with TBS-Triton X-100 0.025% and were incubated in blocker (1% BSA, and 10% goat serum in PBS) for 2 hours at room temperature. Sections were then incubated with rabbit anti-GFAP (Abcam Ltd, Cambridge, U.K.) (1:500 dilution prepared in blocking solution) overnight at 4° C. in a humid atmosphere. After three washes in PBS, 5 min each, the sections were incubated with secondary antibody Alexa 488 goat-anti-rabbit (Invitrogen) (1:200 dilution prepared in blocking solution). The sections were washed three times in PBS, counterstained with Hoestch and mounted with Mounting Medium Fluorescence (Prolong, Invitrogen) and mounted with a coverslip. Comparative digital images from samples were recorded with a Fluoview FV 1000 Laser Scanning Confocal Microscope Olympus using identical brightness and contrast settings.
To evaluate the degree of glial activation it was used a scoring system based on the extent of GFAP staining previously described (Anderson et al., “Glial and endothelial blood-retinal barrier responses to amyloid-beta in the neural retina of the rat”, Clin Ophthalmol—2008, vol. no. 2, pp.:801-816). This scoring system was as follows: Müller cell endfeet region/GCL only (score 1); Müller cell endfeet region/GCL plus a few proximal processes (score 2); Müller cell endfeet plus many processes, but not extending to ONL (score 3); Müller cell endfeet plus processes throughout with some in the ONL (score 4); Müller cell endfeet plus lots of dark processes from GCL to outer margin of ONL (score 5).
The scoring system was as follows: Müller cell endfeet region/GCL only (score 1); Müller cell endfeet region/GCL plus a few proximal processes (score 2); Müller cell endfeet plus many processes, but not extending to ONL (score 3); Müller cell endfeet plus processes throughout with some in the ONL (score 4); Müller cell endfeet plus lots of dark processes from GCL to outer margin of ONL (score 5). n=10 mice per group (5 retinal sections per mice).
(§3) The design and methodology were the same than used in Example 2.

db/db mouse [2] = assay: Blood-retinal barrier: albumin leakage (Evans blue, albumin immunofluorescence) in db/db mice, eye drops; assay type: in vivo; conditions: for albumin leakage (extravasation of albumin): vs vehicle
Excerpt: as §1, §2
(§4) In the lower panel FIG. 6(B) the quantification of albumin immunofluorescence of digital images with Fluoview FV 1000 Laser Scanning Microscope is shown. Immunohistochemistry images of Fluoview FV 1000 Laser Scanning Microscope from which quantification of albumina (in red) was done are not shown. The three type of samples tested were: D-Sham, D-SAXAGLIPTIN and C (db/+). Results are the mean±SD. *p <0.05 between db/db treated with vehicle (D-Sham) and the other groups.
as §3
as §4, with “9(B)” for “6(B)”, “D-Sitagliptin” for “D-SAXAGLIPTIN”, “*p<0.05” for “*p <0.05”

[3] = system: GLAST (glutamate-aspartate transporter); assay: GLAST immunofluorescence in retina of db/db mice, eye drops; assay type: in vivo, mouse
Excerpt: as §1, §2
GLAST (glutamate-aspartate transporter), the main glutamate transporter, was evaluated by fluorescence microscopy using specific antibodies. GLAST was evaluated by fluorescence microscopy using specific antibodies [rabbit anti-GLAST (EAAT1) (1:100, Abcam ab416, Cambridge, UK).
as §3

db/db mouse [4] = assay: Retinal apoptosis (TUNEL) in db/db mice, eye drops; assay type: in vivo; conditions: eye drops for two weeks, ONL, INL, GCL, vs vehicle
Excerpt: as §1, §2
The TUNEL (Terminal Transferase dUTP Nick-End Labeling) staining was carried out using the DeadEnd Fluorometric TUNEL System kit (PROMEGA, Madison, WI, USA). Cryosections of retina were permeabilised by incubation for 2 min on ice with 0.1% Triton X-100 in 0.1% sodium citrate, freshly prepared. The secondary antibody was Alexa 488 goat-anti-rabbit (Invitrogen, San Diego CA, USA). For evaluation by Laser Scanning Confocal microscopy the excitation wavelength was 488 nm and detection in the range of 515-565 nm (green) was used. […]

[5] = system: GLP-1 and its main downstream messenger cAMP; assay: Intraretinal content of GLP-1 and cAMP in db/db mice, eye drops (data not shown); assay type: in vivo, mouse
Excerpt: Without being bound to any theory, inventors consider that, in fact, the DPP-4 inhibitors themselves activate unrelated downstream GLP-1R pathways that might be involved in neuroprotection.

db/db mouse [6] = assay: Retinal glutamate quantification (UPLC) in db/db mice, eye drops; assay type: in vivo; conditions: p<0.05
Excerpt: as §1, §2
Quantification of glutamate was performed by reverse phase ultra-performance liquid chromatography (UPLC) (Acquity-UPLC, Waters) as aminoquinoline derivatives (AccQ-Tag chemistry, MassTrak AAA method and instruments, Waters, Milford, MA).
as §3

[7] = administered in the form of eye drops; cited from earlier work
C. Elegans = conditions: high glucose levels, no GLP-1R expression; cited from earlier work
db/db mouse [8] = assay: Full field electroretinography (ERG) in db/db mice, eye drops; assay type: in vivo
Protocol: Full field electroretinography (ERG) recordings were measured using the Ganzfeld ERG platform (Phoenix Research Laboratories, Pleasanton, CA) following ISCEV (International Society for Clinical Electrophysiology of Vision) recommendations (according to Marmor et al., “Standard for clinical electroretinography.”, International Society for Clinical Electrophysiology of Vision (2004), Doc Ophthalmol—2004; vol. 108, pp.:107-114).

## N[C@@H](CC(=O)N1CCc2c(nc(C(F)(F)F)nc2C(F)(F)F)C1)CN1CC(F)(F)CCC1=O [Gemigliptin, (3S)-3-amino-4-(5,5-difluoro-2-oxopiperidino)-1-[2,4-di(trifluoromethyl)-5,6,7,8-tetrahydropyrido[3,4-d]pyrimidin-7-yl]butan-1-one]
db/db mice
  retinal pericyte apoptosis: ameliorate
  vascular leakage: ameliorate

## N#C[C@@H]1C[C@@H]2C[C@@H]2N1C(=O)[C@@H](N)C12CC3CC(CC(O)(C3)C1)C2 [Saxagliptin, (1S,3S,5S)-2-[(2S)-2-amino-2-(3-hydroxy-1-adamantyl)acetyl]-2-azabicyclo[3.1.0]hexane-3-carbonitrile]
db/db mouse [1]
  GFAP score of the treated mice: < 3
  reactive gliosis: significant decrease
db/db mouse [1]; eye drops twice daily for 14 days, score 1: Müller cell endfeet region/GCL only
  % positive GFAP labeling, score 1: 95.00%
db/db mouse [1]; eye drops twice daily for 14 days, score 2: endfeet region/GCL plus a few proximal processes
  % positive GFAP labeling, score 2: 5.00%
db/db mouse [1]; eye drops twice daily for 14 days, score 3: endfeet plus many processes, not extending to ONL
  % positive GFAP labeling, score 3: 0.00%
db/db mouse [1]; eye drops twice daily for 14 days, score 4: endfeet plus processes throughout with some in the ONL
  % positive GFAP labeling, score 4: 0.00%
db/db mouse [1]; eye drops twice daily for 14 days, score 5: lots of dark processes from GCL to outer margin of ONL
  % positive GFAP labeling, score 5: 0.00%
db/db mouse [2]
  albumin leakage (extravasation of albumin): prevented albumin leakage
[3]
  downregulation of GLAST induced by diabetes: prevented
db/db mouse [4]
  apoptosis (TUNEL positive cells) in retinal layers: significant prevention of apoptosis in all retinal layers
[5]
  intraretinal content of GLP-1: significant increase
  intraretinal content of cAMP: significant increase
db/db mouse [6]
  retinal glutamate concentration vs diabetic mice treated with vehicle: significantly lower

## Cc1cc(-c2cc(O)ccc2Cl)cc2nnc(Nc3ccc(OCCN4CCCC4)cc3)nc12 [TG100572, 4-chloro-3-(5-methyl-3-{[4-(2-pyrrolidin-1-ylethoxy)phenyl]amino}-1,2,4-benzotriazin-7-yl)phenol]
[7]
  reaching the target in the retina: able to reach the target in the retina

## CC#CCn1c(N2CCC[C@@H](N)C2)nc2c1c(=O)n(Cc1nc(C)c3ccccc3n1)c(=O)n2C [Linagliptin, 8-[(3R)-3-aminopiperidin-1-yl]-7-(but-2-yn-1-yl)-3-methyl-1-[(4-methylquinazolin-2-yl)methyl]-3,7-dihydro-1H-purine-2,6-dione]
C. Elegans
  neuroprotective effect: neuroprotective effect

## N[C@@H](CC(=O)N1CCn2c(nnc2C(F)(F)F)C1)Cc1cc(F)c(F)cc1F [Sitagliptin, (R)-4-oxo-4-[3-(trifluoromethyl)-5,6-dihydro[1,2,4]triazolo[4,3-a]pyrazin-7(8H)-yl]-1-(2,4,5-trifluorophenyl)butan-2-amine]
db/db mouse [1]
  GFAP score of the treated mice: ≤ 3
  reactive gliosis: significant decrease
db/db mouse [1]; sitagliptin eye drops for two weeks, score 1
  GFAP score distribution (Table 2), score 1: 85.00
db/db mouse [1]; sitagliptin eye drops for two weeks, score 2
  GFAP score distribution (Table 2), score 2: 10.00
db/db mouse [1]; sitagliptin eye drops for two weeks, score 3
  GFAP score distribution (Table 2), score 3: 5.00
db/db mouse [1]; sitagliptin eye drops for two weeks, score 4
  GFAP score distribution (Table 2), score 4: 0.00
db/db mouse [1]; sitagliptin eye drops for two weeks, score 5
  GFAP score distribution (Table 2), score 5: 0.00
db/db mouse [2]
  sealing function of the BRB: preserved the sealing function of the BRB
  albumin leakage (extravasation of albumin): prevented albumin leakage
[3]
  downregulation of GLAST induced by diabetes: abrogating the downregulation of GLAST
db/db mouse [8]
  functional abnormalities measured by ERG: prevented functional abnormalities
db/db mouse [4]
  apoptosis (TUNEL positive cells) in retinal layers: significant prevention of apoptosis in all retinal layers
[5]
  intraretinal content of GLP-1: significant increase
  intraretinal content of cAMP: significant increase
db/db mouse [6]
  retinal glutamate concentration vs diabetic mice treated with vehicle: prevented glutamate accumulation
